We go through three substances from PMC5021948, “Amyloidogenic amyloid-β-peptide variants induce microbial agglutination and exert antimicrobial activity” (Scientific Reports, 2016).

Data set [1] deals with Enterococcus faecalis (ATCC 29212). The experiment in a line: Colony forming units after plating Aβ-treated cultures. The settings on record: 50 μg/ml peptide, 6 h, Mueller-Hinton broth, inoculum 5 × 10^5 cells/ml, spiral plated, colonies counted after 24 h. The class given is cell-based. How it is done:
(§1) Enterococcus faecalis (ATCC 29212), Listeria monocytogenes (VA 15110/93), Escherichia coli (DH5α) and Staphylococcus aureus (ATCC 25923) were grown aerobically on blood agar plates. Candida albicans (ATCC 10231) was plated on Sabouraud dextrose agar plates. E. coli, S. aureus and C. albicans were cultured at 37 °C; E. faecalis and L. monocytogenes were cultured at 37 °C with an additional 5% CO2. Before the experiments, the organisms were subcultured to generate mid-logarithmic growth cultures for use as inoculates. Colonies from the agar were transferred using a sterile loop to Mueller-Hinton broth (Roth, Karlsruhe, Germany) and incubated for 100 min at 39 °C to achieve a McFarland density of 0.5. The C. albicans and bacterial inocula were normalized in Mueller-Hinton broth to 5 × 10^5 cells/ml immediately before use. For the experiments, an inoculum of 5 × 10^5 cells/ml was dispensed into 96-well plates containing Mueller-Hinton broth growth medium with Aβ peptides, as indicated below.
(§2) Immediately before the experiments, all peptides were diluted in Mueller-Hinton broth to reach a final concentration of 100 μg/ml.
(§3) The viability of E. faecalis, E. coli and C. albicans was further examined by plating Aβ-treated cultures on agar plates. Cultures of E. coli, E. faecalis and C. albicans were prepared as described above. After incubation with 50 μg/ml Aβ1-40, Aβ1-42 or Aβ3p-42 for 6 h for bacteria and 20 h for C. albicans, the cell suspensions were diluted in Mueller-Hinton broth, and the microbial load was determined using an Eddy Jet Spiral Plater (IUL Instruments, Germany) by depositing 50 μl of sample on a rotating agar plate. Bacteria were grown on Mueller-Hinton agar plates, and C. albicans was grown on Sabouraud dextrose agar plates. After 24 h of incubation, colonies were counted and translated to colony-forming units (CFU)/ml.

A further data set concerns Escherichia coli (DH5α). The description is as above. The class given is cell-based. The settings on record: 50 μg/ml peptide, 6 h, Mueller-Hinton broth, inoculum 5 × 10^5 cells/ml, spiral plated, colonies counted after 24 h. On the procedure: as §1, §2, §3
Data set [2] relates to Candida albicans (ATCC 10231). Described as above. The settings on record: 50 μg/ml peptide. The class given is cell-based. On the procedure: as §1, §2, §3
Data set [3] concerns E. faecalis, E. coli, S. aureus, L. monocytogenes and C. albicans. The experiment in a line: Flow cytometry of damaged microorganisms (increased autofluorescence / reduced forward scatter). The class given is cell-based. The settings on record: 25 or 50 μg/ml, 6 h bacteria, 20 h C. albicans. On the procedure: as §1, with “below. […]” for “below.”
After 6 h of incubation for bacteria and 20 h for C. albicans, 50 μl of the cell suspension was diluted in 1% paraformaldehyde (Sigma-Aldrich, Munich, Germany) and stained with DAPI (Sigma-Aldrich, Munich, Germany). Flow cytometry analysis was performed using a Gallios Cytometer (Beckman Coulter, Krefeld, Germany), and the results were evaluated using Kaluza® software (Beckman & Coulter, Krefeld, Germany). Experiments were repeated at least three times for each organism, and duplicates were included for each assay condition. Cultures treated with antibiotics, Mueller-Hinton broth without cells and untreated cells served as controls. Viability was assessed based on the increase in autofluorescence and reduction of forward scatter as signs of microbial damage.
On the technique in general: Flow cytometry measures light scatter and fluorescence of single cells or particles in a stream.

The test system of data set [4] is E. faecalis. Briefly: Automated quantification of cell aggregation on immunocytochemistry slides. To be noted: 50 μg/ml, 6 h. The class given is cell-based, Enterococcus faecalis. How it is done: (§4) The immunocytochemistry of E. faecalis and S. aureus was examined using the Gram preparations specified above. To achieve the robust adherence of pathogens on the glass slides during the staining procedure, cells were incubated with 2% paraformaldehyde (Sigma-Aldrich, Munich, Germany) on the slides and air dried for 60 min at room temperature, followed by washing with PBS (Biochrom, Berlin, Germany). […]
(§5) All images were visually quality controlled. […] An automated quantitative phenotypic image analysis was performed using a custom-adapted version of the image analysis software DetecTiff. Pericellular Aβ peptide levels were quantified from the AF488 channel within donut-shaped masks (see Fig. 1B), which were generated from the DAPI channel in a three-step procedure. […] The Aβ peptide level in an individual cell was calculated as the arithmetic mean of all pixel values within the area of a donut-shaped mask and reported as the mean pixel intensity. Cell aggregation was quantified in an automated manner from segmented images of DAPI-stained nuclei by counting the number of bacteria adjacent to a selected individual bacterium within a rectangular 50-pixel[2] region.

Data set [5] is described as follows: Thioflavin T assay of Aβ peptide aggregation. The class given is physicochemical. To be noted: 160 μg/ml in PBS/0.4% NH4OH, 0.2 mM Thioflavin T, 37 °C, 6 h, Ex 450/Em 484 nm; with heat inactivated E. coli, S. aureus or C. albicans (McFarland 0.5) versus PBS alone or 0.5 μm carboxylated microbeads. How it is done: Thioflavin T was used to monitor the aggregation of Aβ1-42 in the presence of microorganisms. In a black 96-well plate, 160 μg/ml of Aβ1-42 in PBS/0.4% NH4OH were mixed with heat inactivated E. coli, S. aureus or C. albicans at a final density of McFarland 0.5. Leaving away the microorganisms or adding 10 μg/ml carboxylated microbeads (Micromod, Rostock, Germany) with a diameter of 0.5 μm served as control. After adding Thioflavin T (Sigma-Aldrich, Munich, Germany) in final concentration of 0.2 mM, kinetic measurement was performed at 37 °C with excitation at 450 nm and emission at 484 nm in a CLARIOstar® microplate reader (BMG labtech, Ortenberg, Germany). Measurements containing the respective microorganisms but no Aβ1-42 served as blank.

Data set [6] concerns surfaces of E. faecalis and S. aureus. Briefly: Immunocytochemistry (6E10), Aβ peptide bound to microbial surface. The class given is binding. To be noted: 50 μg/ml, 6 h, 6E10 antibody, mean pixel intensity in donut-shaped masks.
In another data set the test system is S. aureus. The experiment in a line: Automated quantification of cell aggregation on immunocytochemistry slides. The settings on record: 50 μg/ml, 6 h. The class given is cell-based, Staphylococcus aureus. How it is done: as §4, §5
Data set [7] has as its system E. faecalis. Briefly: Scanning electron microscopy. The class given is cell-based, Enterococcus faecalis. The settings on record: 50 μg/ml, 6 h. The source says: The specimens were attached to aluminum holders and sputtered with platinum in 15-nm layers using a LEICA EM SCD-500 (Leica, Wetzlar, Germany). The surface morphology of the platinum sputter-coated samples was investigated using a JSM 6 610 scanning electron microscope (JEOL, Peabody, MA, USA) at a working distance of 10 mm and an acceleration voltage of 10 kV at room temperature.

Data set [8] concerns E. faecalis, E. coli, S. aureus, L. monocytogenes and C. albicans. Briefly: Gram staining, microbial agglutination. The class given is cell-based. To be noted: 50 μg/ml, 6 h (20 h for C. albicans). How it is done:
as §1
The same cultures analysed by flow cytometry were used for the gram staining. After incubating the bacteria and C. albicans with the peptides, 10 μl of the cell suspensions were air-dried on microscope slides and flame-fixated. The smears were flooded with crystal violet solution for 2 min. The slides were rinsed and then incubated for 2 min with iodine solution. […]

For another data set, the system named is C. albicans. Briefly: Proliferation by turbidimetry at 570 nm. To be noted: 3.13 or 6.25 μg/ml, 20 h (Fig. 5 legend: 24 h), 37 °C. The class given is cell-based, Candida albicans. On the procedure:
as §1
An inoculum of 5 × 10^5 cells/ml was dispensed into 96-well plates containing Mueller-Hinton broth growth medium and 3.13 μg/ml or 6.25 μg/ml Aβ-peptides or LL-37 (Anaspec, Fremont, CA, USA). […] The resulting absorbance was measured with a SpectraMax 340 PC 384 microplate reader (Molecular Devices, Biberach, Germany). The proliferation of C. albicans was assessed by measuring turbidity at 570 nm.

As to “Aβ1-42: amyloidogenic amyloid-β peptide variant ending at position 42 (Anaspec)”, the “reduction of the number of colony forming units compared to untreated cultures” value (in data set [1]; in the data set with Escherichia coli (DH5α)) was 50% each time. Also, in data set [2] (20 h (Fig. 5 legend: 24 h), Sabouraud dextrose agar, colonies counted after 24 h), the “reduction of the number of colony forming units” value was determined as 85%. Moreover, the “antimicrobial / microbicidal activity by flow cytometry” value (from here on “antimicrobial / microbicidal activity”) in [3] is recorded as “exerted antimicrobial activity”. Further, the “damaged microorganisms (reduced forward scatter and increased autofluorescence, AF+/FSC−), share of cells” value in [3] (DAPI-positive events) was “up to 70%”. Besides, the “agglutination of bacteria (number of cells around each bacterium)” value in the data set with E. faecalis [4] and in the data set on S. aureus was “led to agglutination” throughout. Also, the “agglutination (aggregation) of the peptide, Thioflavin fluorescence over time” value in [5] was “more rapid increase in Thioflavin fluorescence”. Besides, the “binding of Aβ peptide to microbial surfaces” value in data set [6] is given as “bound to microbial surfaces”.
Regarding “Aβ1-40: non-amyloidogenic amyloid-β peptide variant ending at position 40 (Anaspec)”, the “reduction of the number of colony forming units compared to untreated cultures” value (in [1]; in the data set on Escherichia coli (DH5α)) was “not reduced” in each case. The “antimicrobial effect in culture (colony forming units)” value in data set [2] (20 h) is listed as “moderate antimicrobial effect”. For the same substance, the “antimicrobial / microbicidal activity” value in [3] was “No microbicidal activity was observed”. Further, the “agglutination of bacteria (number of cells around each bacterium)” value in the data set on E. faecalis [4] and with S. aureus was “almost no agglutination” in each case. Moreover, the “aggregates of bacteria in scanning electron microscopy” value in the data set on E. faecalis [7] is listed as “Only minor aggregates”. Moreover, in data set [8], the “microbial agglutination in Gram stains” value was “Neither Aβ1-40 nor Aβ2-40 induced microbial agglutination”. Further, the “proliferation of C. albicans (turbidity)” value in the data set on C. albicans is listed as “miss the cytotoxic effect”.
In the case of “Aβ2-40: non-amyloidogenic, N-terminally truncated amyloid-β peptide variant ending at position 40 (Anaspec)”, the “antimicrobial / microbicidal activity” value in [3] is “No microbicidal activity was observed”. For the same substance, the “aggregates of bacteria in scanning electron microscopy” value in the data set with E. faecalis [7] is given as “larger aggregates of bacteria that retained their vital morphology”. The “microbial agglutination in Gram stains” value in [8] is “Neither Aβ1-40 nor Aβ2-40 induced microbial agglutination”. Besides, the “proliferation of C. albicans (turbidity)” value in the data set on C. albicans is recorded as “miss the cytotoxic effect”.
